Experimental data published in paper PMC13267291, “In vivo functional profiling and structural characterization of the human GLP1R A316T variant” (Science Advances, 2026).
Blank lines part the entries; values can stand above or below the substance they belong to.

What was measured:
[1] = system: SNAP/FLAG-hGLP1R^A316T versus ^WT; assay: Real-time cytosolic calcium assay (Cal-520, AM) in transduced hGLP1R^-/- mouse islets; type: cell-based, human; conditions: 100 nM; 6 mM glucose; AUC; n = 3-4; fig. S7D-H
Description: signal serially monitored for 30 min. The TR-FRET ratio, i.e. the ratio of fluorescence intensities at 590 and 490 nm, was considered indicative of the proximity of the GLP-1R ECD to the plasma membrane.
Baseline-normalised AUCs were used to generate concentration– response curves fitted using GraphPad Prism 10.1.2, with logEC50 and Emax calculated for each replicate dose response curve.
Real- time c ytosolic c alcium a ssay hGLP1R-/- mouse islets were transduced with pAV- SNAP/FLAG-hGLP1RWT or A316T adenoviruses for 24 hours, labelled with the Ca2+ dye Cal-520, AM (4.5 μM; Stratech) diluted in KBRH buffer containing 6 mM glucose for 1 hour and encased in Matrigel onto […] glass bottom MatTek dishes. Islets were then imaged every 6 s at 488 nm using a Nikon Eclipse Ti microscope with an ORCA-Flash 4.0 camera (Hamamatsu) and Metamorph software (Molecular Devices) at 37°C on a heated stage before and after addition of the indicated GLP-1RA followed by 11 mM glucose and then 20 mM KCl at the indicated time points. Raw fluorescence intensity traces from islet ROIs were extracted using Fiji. Responses were plotted relative to the average fluorescence intensity during the 6 mM glucose baseline period, before agonist addition, and AUCs separately calculated for the GLP- 1RA + 6 mM and 11 mM glucose […]
Isolation o f detergent-resistant membrane (D RM) fractions
To purify lipid rafts, […] fractions were isolated from INS-1 832/3 Glp1r-/- SNAP/FLAG-hGLP1RWT or A316T cells by ultracentrifugation based on their insolubility in non-ionic detergents at 4°C and their low density because of their high lipid-to- protein ratio. Cells seeded onto 6-cm dishes were stimulated ± 100 […]
mM tris-HCl, pH 7.0 buffer supplemented with cOmplete EDTA-free protease inhibitor cocktail (Roche) and phosphatase inhibitor cocktail 2 (Sigma-Aldrich) for 10-15 minutes on a rocking platform at 4°C. The cell suspension was collected and homogenised by passing through a 21-gauge needle, followed by ultracentrifugation at 63,000 g f or 1 hour at 4°C with a Sorvall Discovery M120 ultracentrifuge. Pellets

[2] = system: SNAP/FLAG-hGLP1R^A316T versus ^WT; assay: Real-time cAMP imaging (cADDis) in INS-1 832/3 sublines; type: cell-based, rat; conditions: 100 nM, n = 4, no significant differences, fig. S8K-P
Description: (§1) To measure cAMP, hGLP1R^A316T/A316T versus ^+/+ control mouse islets, or INS-1 832/3 SNAP/FLAG-hGLP1R^WT versus ^A316T cells cultured on glass-bottom MatTek dishes, were transduced with cADDis (Green Gs cADDis cAMP Kit, Montana Molecular), a baculovirus genetically encoding a fluorescent cAMP in situ biosensor, following the manufacturer’s instructions. Transduced islets were subsequently encased into Matrigel on glass-bottom MatTek dishes 24 hours after transduction, and both islets and cells were imaged at λex = 488 nm in a Nikon Eclipse Ti spinning disk confocal microscope and 20× objective with an ORCA-Flash 4.0 camera (Hamamatsu) for time-lapse recordings with image acquisitions every 6 s in KRBH buffer containing 0.1% (w/v) BSA and 6 mM glucose for 2 min to record the baseline, with 100 nM GLP-1RA subsequently added by manual pipetting, and islets imaged for a further 5 min before addition of 100 μM IBMX + 10 μM forskolin for the final 2 min of the acquisition. Raw green fluorescence intensity traces were extracted from whole islet regions of interest (ROIs) using Fiji, and mean intensities were calculated for each ROI and time point. Responses were plotted relative to average fluorescence intensity per islet during the baseline period before GLP-1RA addition.

[3] = system: hGLP1R^A316T-SmBiT versus hGLP1R^WT-SmBiT; assay: Mini-Gs recruitment by NanoBiT complementation; type: cell-based, human; conditions: serial doses up to 100 nM; n = 5; Fig. 7L
Description: For mini-Gs recruitment, INS-1 832/3 Glp1r^−/− cells were seeded in 6-cm dishes and transiently cotransfected with 1.7 μg each of hGLP1R^WT or ^A316T-SmBiT and LgBiT-mini-Gs constructs for 24 hours. Cells were then detached, resuspended in Hanks’ balanced salt solution (HBSS) containing NanoGlo Live Cell Reagent (1:20; Promega) with furimazine, and seeded onto white 96-well half-area plates. Baseline luminescence was immediately recorded over 8 min at 37°C in a Flexstation 3 plate reader (Molecular Devices) and for a further 30 min after GLP-1RA addition at serial doses up to 100 nM. Readings were taken every 30 s and normalized to average well baseline, and average vehicle-induced signal was subtracted to establish the agonist-induced effect. To measure β-arrestin 2 recruitment, cells were processed as above with slight modifications: INS-1 832/3 Glp1r^−/− cells were cotransfected with 1.77 μg each of hGLP1R^WT or ^A316T-SmBiT and LgBiT–β-arrestin 2 plasmids for 24 hours, and GLP-1RAs were added at serial doses up to 1 μM. AUCs were calculated for each agonist concentration and fitted to log(agonist) versus response four-parameter curves using GraphPad Prism 10.1.2, with errors propagated for mini-Gs over β-arrestin 2 recruitment bias calculations.

[4] = system: SNAP/FLAG-hGLP1R^A316T versus ^WT; assay: GLP-1R recycling assay; type: cell-based, human; conditions: INS-1 832/3 sublines; 1 hour agonist, 1 and 3 hours recycling; n = 3-4; Fig. 7H
Description: INS-1 832/3 Glp1r^−/− SNAP/FLAG-hGLP1R^WT or ^A316T cells were seeded as above for 24 hours, washed with HBSS, pretreated with vehicle or GLP-1RA for 1 hour at 37°C in complete medium, washed again, and treated with 100 nM exendin-4–TMR in reverse time order for 3 hours and 1 hour at 37°C in complete medium. Plates were then promptly imaged after washing as above. In this assay, total exendin-4–TMR uptake is indicative of residual surface receptor at the end of the GLP-1RA treatment and cumulative reappearance of the surface receptor during the recycling period.

[5] = system: human GLP-1R A316T versus WT; assay: Real-time cAMP imaging (cADDis) in mouse islets; type: cell-based; conditions: chow-fed mouse islets; 100 nM; 6 mM glucose; AUC; n = 4; not significant; Fig. 5D-F
Description: as §1

A316T mini-Gs recruitment versus WT, log(Emax/EC50) [3]: increased potency
A316T receptor recycling to the plasma membrane versus WT [4]: not different from WT
Substance: exendin-F1
Agonist-induced Ca^2+ responses, A316T versus WT [1]: increased
cAMP responses, A316T versus WT [2]: tendency for increased cAMP
cAMP response to agonist, A316T/A316T versus +/+ islets [5]: near-significant increase in cAMP

Substance: GLP-1(7-36)NH2
Agonist-induced Ca^2+ responses, A316T versus WT [1]: not significantly different
cAMP responses, A316T versus WT [2]: tendency for increased cAMP
A316T mini-Gs recruitment versus WT, log(Emax/EC50) [3]: No significant changes
A316T receptor recycling to the plasma membrane versus WT [4]: significantly reduced

Substance: exendin-4
Agonist-induced Ca^2+ responses, A316T versus WT [1]: not significantly different
cAMP responses, A316T versus WT [2]: reduced responses
A316T mini-Gs recruitment versus WT, log(Emax/EC50) [3]: No significant changes
A316T receptor recycling to the plasma membrane versus WT [4]: not different from WT
cAMP response to agonist, A316T/A316T versus +/+ islets [5]: trend for reduced cAMP
